# Laboratory results: patent publication US20080311092A1, “Murine Stem Cells and Applications Thereof” (priority 2005, published 2008)
# “Also recorded” adds a separate entry of the source. Where two headings read alike, the source gives them in different places.
# What was measured:
# [1] = system: diffuse large B-cell lymphoma; assay: Doxorubicin treatment of Sca1/BCL6 cancer stem cell model mice, cell counting; format: in vivo, mouse
# Method: DXR (doxorubicin) was dosed at 7 mg/kg. […] Drugs were dissolved in water and delivered intravenously. Water was used as placebo.
# human lung cancer = conditions: humans; cited from earlier work
# human lymphomas = conditions: humans; cited from earlier work
# lung cancer = assay: Doxorubicin treatment of Sca1/hKRAS CSC model lung cancer mice, survival study; format: in vivo, mouse; conditions: for Outcome of treatment in the lung cancer CSC mouse model: Sca1/hKRAS mice
# Method: DXR (doxorubicin) was dosed at 7 mg/kg. The administration scheme was every 7th day, 3 times—q7dx3—for a duration of 4-5 weeks. Drugs were dissolved in water and delivered intravenously. Water was used as placebo.
# human CML = conditions: cited from earlier work; for Outcome of treatment in human CML: humans
# [2] = system: B cell acute lymphoblastic leukaemia (B-ALL); conditions: BCR-ABLp210 mouse model, not stem-cell targeted; cited from earlier work
# Sca1-positive cells = assay: Ganciclovir treatment of Sca1-BCL6-IRES-HVTK mice; format: in vivo, mouse
# Method: (§1) Ganciclovir: stock solutions were prepared following the SIGMA indications. The regimen was 100 mg/kg/day by intraperitoneal injection for 14 days. The placebo was an equal volume of diluent water/normal saline.
# CSC mouse cancer models (Sca1-HVTK-IRES-BCR-ABLp210 and Sca1-BCL6-IRES-HVTK mice) were used to address the question of whether the selective ablation of Sca1-positive cells is effective in the therapy of cancer.
# (§2) The mice were treated either with ganciclovir (GCV) or with placebo, as described under materials and methods. For each mouse model, 60 mice were injected daily with ganciclovir, and 30 mice were used as a control and injected daily with saline (placebo).
# CSC that express BCR-ABL = assay: Ganciclovir treatment of PLy6-HSVtk-IRES-BCRABLp210 (Sca1-IRES-HVTK-BCR-ABL p210) mice; format: in vivo, mouse; conditions: for Disappearance of cancers / tumour burden on GCV treatment: PLy6-HSVtk-IRES-BCRABLp210 mice, 100% with tumours at start, 60 mice injected daily with GCV (100 mg/kg/day i.p.)
# Method: PLy6-HSVtk-IRES-BCRABLp210 mice were used to test the effectiveness of GCV-induced cell death in CSC that express BCR-ABL. GCV, after preliminary testing, was administered at a dose of 100 mg/kg/day by i.p. injection for 14 days. This dose has been reported to kill cells expressing HSV-tk in transgenic mice (Bush TG. Cell 1998, 93: 189-201). Dosing started when the mice were leukaemic. A control group was given injections of normal saline.
# as §1
# 30 mice were used as a control and were subjected daily with saline solution whereas the 60 remaining mice were injected daily with GCV as described in method section.
# as §2
smiles,measurement,setting,value
COc1cccc2c1C(=O)c1c(O)c3c(c(O)c1C2=O)C[C@@](O)(C(=O)CO)C[C@@H]3O[C@H]1C[C@H](N)[C@H](O)[C@H](C)O1 [doxorubicin],Outcome of treatment of diffuse large B-cell lymphoma in CSC mice,[1]; Sca1/BCL6 CSC mouse model,ineffective; also recorded: unsuccessful
same,Change in number of B cells,"[1]; Sca1/BCL6 mice, 3-5 month course of doxorubicin treatment",decreased or increased slightly
same,Factor by which the number of CSC increased,"[1]; Sca1/BCL6 mice, over three months of doxorubicin treatment",7-8
same,Outcome of treatment of human lung cancer,human lung cancer,unsuccessful
same,Outcome of treatment in human lymphoma / DLBCL patients,human lymphomas,virtually all human lymphoma patients treated with doxorubicin relapse
same,Survival: none of the treated mice survived longer than,"lung cancer; CSC model lung cancer mice, doxorubicin 7 mg/kg i.v. q7dx3",≤ 20 weeks
same,Outcome of treatment in the lung cancer CSC mouse model,lung cancer,ineffective; also recorded: unsuccessful
same,Outcome of treatment in the lung cancer CSC mouse model,lung cancer; listed as Doxorubicin,also unsuccessful
"Cc1ccc(NC(=O)c2ccc(CN3CCN(C)CC3)cc2)cc1Nc1nccc(-c2cccnc2)n1 [Gleevec™, imatinib]",Effect on leukaemic stem cells in humans,human CML; Michor F et al. Nature (2005),does not deplete leukaemic stem cells
same,Outcome of treatment in human CML,human CML,only gives symptomatic relief; also recorded: typically relapse
same,Outcome of treatment in human CML,human CML; listed as Gleevec,provides symptomatic relief
same,Outcome of treatment in conventional mouse B-ALL model,[2],cures the cancer
Nc1nc(O)c2ncn(COC(CO)CO)c2n1 [ganciclovir],Time to elimination of all tumours,"Sca1-positive cells; Sca1-BCL6-IRES-HVTK mice, 60 mice injected daily with ganciclovir",10 weeks
same,Tumour recurrence during additional monitoring,Sca1-positive cells; additional 11 weeks of monitoring,no tumour recurrence was observed
same,Tumour recurrence during further monitoring,CSC that express BCR-ABL; 8 weeks of further monitoring,did not recur
same,Time of treatment after which tumours disappeared completely,CSC that express BCR-ABL; 60 Sca1-IRES-HVTK-BCR-ABL p210 mice treated with ganciclovir,8 weeks
same,Disappearance of cancers / tumour burden on GCV treatment,CSC that express BCR-ABL; listed as GCV,cancers disappeared completely
same,Disappearance of cancers / tumour burden on GCV treatment,CSC that express BCR-ABL; listed as Gancyclovir,complete reduction of tumour burden
same,Tumour recurrence (CML and solid tumours) after GCV treatment,CSC that express BCR-ABL; additional 3 months of observation after cancers disappeared,no tumour recurrence was observed
